Results on 19 compounds are retold here after patent publication US8193191B2, “Urotensin II receptor antagonists” (Janssen Pharmaceutica N.V., priority 2006, dated 2012).

Each structure is given as a SMILES string. Values joined by “and” are separate entries in the source; they are usually repeats but may differ in a detail not shown here. Equal entries are not always repeated. Where two headings read alike, the source gives them in different places.

Test [1] deals with T1, endogenous human UII receptor (Homo sapiens, UniProt Q9UKP6).
T1 sequence (Q9UKP6 1-389): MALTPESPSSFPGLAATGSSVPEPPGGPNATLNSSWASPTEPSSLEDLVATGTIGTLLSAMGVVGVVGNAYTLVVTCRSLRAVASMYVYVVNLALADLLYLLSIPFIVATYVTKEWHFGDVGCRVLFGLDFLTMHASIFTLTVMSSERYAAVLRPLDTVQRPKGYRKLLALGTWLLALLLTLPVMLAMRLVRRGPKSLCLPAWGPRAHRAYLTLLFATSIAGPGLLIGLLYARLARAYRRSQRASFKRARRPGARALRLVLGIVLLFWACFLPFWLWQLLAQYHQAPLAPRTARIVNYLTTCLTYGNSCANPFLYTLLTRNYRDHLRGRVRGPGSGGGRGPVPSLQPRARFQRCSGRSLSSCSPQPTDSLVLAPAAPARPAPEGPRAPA
In words: Human Radioligand Binding Assay ((^125I)-U-II binding to human skeletal muscle myoblasts).

For test [2], the target named is T2, rat GPR14 (U-II receptor) (Rattus norvegicus, UniProt P49684).
T2 construct: expressed in transfected cells
T2 sequence (P49684 1-386): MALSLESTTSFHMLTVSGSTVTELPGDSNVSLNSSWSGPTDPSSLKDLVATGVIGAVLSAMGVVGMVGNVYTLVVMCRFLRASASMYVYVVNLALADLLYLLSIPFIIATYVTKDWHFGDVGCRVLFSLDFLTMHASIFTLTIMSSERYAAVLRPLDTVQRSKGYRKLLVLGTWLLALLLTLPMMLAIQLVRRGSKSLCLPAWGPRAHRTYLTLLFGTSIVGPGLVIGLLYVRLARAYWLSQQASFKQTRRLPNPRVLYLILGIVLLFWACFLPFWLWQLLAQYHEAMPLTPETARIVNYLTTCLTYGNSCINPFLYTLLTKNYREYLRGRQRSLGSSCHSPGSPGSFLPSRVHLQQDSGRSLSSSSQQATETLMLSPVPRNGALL
Put plainly: Rat UII Calcium Mobilization FLIPR Assay. The format is cell-based. Particulars: for inhibition at 10 µM / inhibition at 50 µM: CHO, 5 min, agonist-induced Ca2+ mobilization (FLIPR), CHO cells with rat UII receptor; for inhibition at 10 µM: 10 μM compound, read-out: % I @ 10; for inhibition at 50 µM: 50 μM compound, read-out: % I @ 50; for IC50: Inhibition of Acetyl-cyclic[Cys-Phe-Trp-Lys-(2-Nal)-Cys]-NH2 induced Ca2+ mobilization (FLIPR) in CHO cells transfected with rat UII receptor. In short, it runs like this:
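CHO cells stably expressing rat U-II receptor, seeded 24 h before assay, were loaded with FLIPR calcium dye in HBSS/20 mM HEPES/0.1% BSA/2.5 mM probenecid, pH 7.4, for 1 h at 37° C. Calcium mobilization then read by FLIPR at 23° C.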

Setting [3] is: Inhibition of human UII binding to human skeletal muscle myoblasts containing endogenous human UII receptor.

On to `COc1ccc(CN2C(=O)c3cccc(N4CCN(Cc5ccccc5)CC4)c3C2=O)cc1OC` [Cpd 5, 4-(4-benzyl-piperazin-1-yl)-2-(3,4-dimethoxy-benzyl)-isoindole-1,3-dione], for which, in test [1], the Ki was 1.5 µM. Further, in test [2], the inhibition at 10 µM stood at 99% and the inhibition at 50 µM was found to be 99%. Moreover, the IC50 in test [2] (read-out: IC50) is 0.151 µM.

`COc1ccc(CN2C(=O)c3cccc(N4CCN(C(C)c5ccccc5)CC4)c3C2=O)cc1OC` (centres unmarked) [Cpd 6, 2-(3,4-dimethoxy-benzyl)-4-[4-(1-phenyl-ethyl)-piperazin-1-yl]-isoindole-1,3-dione] registered a Ki in test [1] of 1.2 µM. In addition, in test [2], the inhibition at 10 µM was found to be 103% and the inhibition at 50 µM was found to be 102%. For the same compound, the half-maximal inhibitory concentration (IC50) in test [2] (read-out: IC50) was 0.16 µM.

In test [1], `COc1ccc(CN2C(=O)c3cccc(N4CC5CCC(C4)N5Cc4ccccc4)c3C2=O)cc1OC` [Cpd 7, 4-(8-benzyl-3,8-diaza-bicyclo[3.2.1]oct-3-yl)-2-(3,4-dimethoxy-benzyl)-isoindole-1,3-dione] displayed a Ki of 0.2 µM. In addition, the inhibition at 10 µM in test [2] amounted to 89%. For the same compound, in test [2] (read-out: IC50), the IC50 was 0.22 µM and 0.18 µM.

Take `CCC(c1ccc(OC)c(OC)c1)N1C(=O)c2cccc(N3CCN([C@H](C)c4ccccc4)CC3)c2C1=O` (stereo partly drawn) [Cpd 8, 2-[1-(3,4-dimethoxy-phenyl)-propyl]-4-[4-(1R)-(1-phenyl-ethyl)-piperazin-1-yl]-isoindole-1,3-dione]: the Ki in test [1] (setting [3]) amounted to 0.31 µM. Besides, in test [2], the inhibition at 10 µM amounted to 100% and the inhibition at 50 µM was found to be 100%. Also, the IC50 in test [2] (read-out: IC50) came out at 0.18 µM.

For the compound `COc1ccc(CN2C(=O)c3c(Cl)ccc(N4CC5CCC(C4)N5Cc4ccccc4)c3C2=O)cc1OC` [Cpd 9, 4-(8-benzyl-3,8-diaza-bicyclo[3.2.1]oct-3-yl)-7-chloro-2-(3,4-dimethoxy-benzyl)-isoindole-1,3-dione], in test [1], affinity was put at a Ki of 0.66 µM. Moreover, in test [2], the inhibition at 10 µM was found to be 91% and the inhibition at 50 µM is 81%. Further, in test [2] (read-out: IC50), the IC50 turned out to be 0.19 µM.

Compound `COc1ccc(CN2C(=O)c3cccc(N4CCN(Cc5ccc(F)cc5)CC4)c3C2=O)cc1OC` [Cpd 12, 2-(3,4-dimethoxy-benzyl)-4-[4-(4-fluoro-benzyl)-piperazin-1-yl]-isoindole-1,3-dione] displayed a Ki in test [1] of 4.5 µM. Besides, the IC50 in test [2] (read-out: IC50) was 2.8 µM and 0.37 µM.

Take `CCC(c1ccccc1)N1CCN(c2cccc3c2C(=O)N(Cc2ccc(OC)c(OC)c2)C3=O)CC1` (centres unmarked) [Cpd 13, 2-(3,4-dimethoxy-benzyl)-4-[4-(1-phenyl-propyl)-piperazin-1-yl]-isoindole-1,3-dione]: the affinity in test [1] corresponds to a Ki of 4 µM. Moreover, in test [2], the inhibition at 10 µM was 95% and the inhibition at 50 µM was determined as 99%. Further, the IC50 in test [2] (read-out: IC50) stood at 0.41 µM.

Regarding `COc1cc(CN2C(=O)c3cccc(N4CCN([C@H](C)c5ccccc5)CC4)c3C2=O)ccc1O` [Cpd 15, 2-(4-hydroxy-3-methoxy-benzyl)-4-[4-(1R)-(1-phenyl-ethyl)-piperazin-1-yl]-isoindole-1,3-dione], the inhibitory constant (Ki) in test [1] is 5.2 µM. Further, in test [2], the inhibition at 10 µM was determined as 100% and the inhibition at 50 µM was 100%. The IC50 in test [2] (read-out: IC50) was determined as 0.82 µM.

With `COc1ccc(CN2C(=O)c3cccc(N4CCN(Cc5cccc(F)c5)CC4)c3C2=O)cc1OC` [Cpd 17, 2-(3,4-dimethoxy-benzyl)-4-[4-(3-fluoro-benzyl)-piperazin-1-yl]-isoindole-1,3-dione], the affinity in test [1] corresponds to a Ki of 3.5 µM. For the same compound, in test [2], the inhibition at 10 µM turned out to be 99% and the inhibition at 50 µM is 101%. Besides, the 50% inhibitory concentration (IC50) in test [2] (read-out: IC50) was found to be 1.1 µM.

In test [1], `CCOc1ccc(CN2C(=O)c3cccc(N4CCN([C@H](C)c5ccccc5)CC4)c3C2=O)cc1OC` [Cpd 18, 2-(4-ethoxy-3-methoxy-benzyl)-4-[4-(1R)-(1-phenyl-ethyl)-piperazin-1-yl]-isoindole-1,3-dione] displayed a Ki of 2.9 µM. Also, in test [2], the inhibition at 10 µM is 98% and the inhibition at 50 µM was 101%. For the same compound, the IC50 in test [2] (read-out: IC50) came out at 1.4 µM.

The compound `COc1ccc(CN2C(=O)c3cccc(C4=CCN(Cc5ccccc5)CC4)c3C2=O)cc1OC` [Cpd 19, 4-(1-benzyl-1,2,3,6-tetrahydro-pyridin-4-yl)-2-(3,4-dimethoxy-benzyl)-isoindole-1,3-dione] yielded a Ki in test [1] of 5.2 µM. In test [2], the inhibition at 10 µM amounted to 94% and the inhibition at 50 µM was found to be 100%. Besides, in test [2] (read-out: IC50), the half-maximal inhibitory concentration (IC50) stood at 1.5 µM.

`COc1ccc(CN2C(=O)c3cccc(N4CCN(C(C)(C)c5ccccc5)CC4)c3C2=O)cc1OC` [Cpd 28, 2-(3,4-dimethoxy-benzyl)-4-[4-(1-methyl-1-phenyl-ethyl)-piperazin-1-yl]-isoindole-1,3-dione] registered a Ki in test [1] of 5.5 µM. Besides, in test [2], the inhibition at 10 µM was determined as 75% and the inhibition at 50 µM worked out at 101%. In test [2] (read-out: IC50), the IC50 came out at 4.2 µM.

Take `COc1ccc(C(CN(C)C)N2C(=O)c3cccc(N4CCN([C@H](C)c5ccccc5)CC4)c3C2=O)cc1OC` (stereo partly drawn) [Cpd 63, 2-[1-(3,4-dimethoxy-phenyl)-2-dimethylamino-ethyl]-4-[4-(1R)-(1-phenyl-ethyl)-piperazin-1-yl]-isoindole-1,3-dione]: in test [1], affinity was put at a Ki of 2.8 µM. In addition, in test [2], the inhibition at 10 µM is 102% and the inhibition at 50 µM was found to be 102%. The IC50 in test [2] (read-out: IC50) was found to be 0.4 µM.

In test [1], `COc1ccc(C(CN)N2C(=O)c3cccc(N4CCN([C@H](C)c5ccccc5)CC4)c3C2=O)cc1OC` (stereo partly drawn) [Cpd 64, 2-[2-amino-1-(3,4-dimethoxy-phenyl)-ethyl]-4-[4-(1R)-(1-phenyl-ethyl)-piperazin-1-yl]-isoindole-1,3-dione] registered a Ki of 0.7 µM. In test [2], the inhibition at 10 µM amounted to 101% and the inhibition at 50 µM was found to be 98%. In addition, in test [2] (read-out: IC50), the IC50 was 0.3 µM.

Regarding `COc1ccc(C(CCCNC(=O)OC(C)(C)C)N2C(=O)c3cccc(N4CCN([C@H](C)c5ccccc5)CC4)c3C2=O)cc1OC` (stereo partly drawn) [Cpd 65, (4-(3,4-dimethoxy-phenyl)-4-{1,3-dioxo-4-[4-(1R)-(1-phenyl-ethyl)-piperazin-1-yl]-1,3-dihydro-isoindol-2-yl}-butyl)-carbamic acid tert-butyl ester], in test [1] (setting [3]), the Ki turned out to be 0.2 µM. In test [2], the inhibition at 10 µM came to 103% and the inhibition at 50 µM turned out to be 102%. Further, the IC50 in test [2] (read-out: IC50) was 0.2 µM.

With `COc1ccc(C(CCCN)N2C(=O)c3cccc(N4CCN([C@H](C)c5ccccc5)CC4)c3C2=O)cc1OC` (stereo partly drawn) [Cpd 66, 2-[4-amino-1-(3,4-dimethoxy-phenyl)-butyl]-4-[4-(1R)-(1-phenyl-ethyl)-piperazin-1-yl]-isoindole-1,3-dione], the Ki in test [1] (setting [3]) is 3.2 µM. In test [2], the inhibition at 10 µM was 101% and the inhibition at 50 µM came out at 97%. The IC50 in test [2] (read-out: IC50) worked out at 0.2 µM.

In the case of `COc1ccc(C(CCCNS(C)(=O)=O)N2C(=O)c3cccc(N4CCN([C@H](C)c5ccccc5)CC4)c3C2=O)cc1OC` (stereo partly drawn) [Cpd 67, N-(4-(3,4-dimethoxy-phenyl)-4-{1,3-dioxo-4-[4-(1R)-(1-phenyl-ethyl)-piperazin-1-yl]-1,3-dihydro-isoindol-2-yl}-butyl)-methanesulfonamide], the Ki in test [1] was found to be 1.4 µM. Besides, in test [2], the inhibition at 10 µM came to 101% and the inhibition at 50 µM came to 99%. Moreover, the IC50 in test [2] (IC50 (μM)) turned out to be 0.11 µM. Also, the IC50 in test [2] (read-out: IC50) amounted to 0.1 µM.

`COc1ccc(C(CCCNS(=O)(=O)c2cccs2)N2C(=O)c3cccc(N4CCN([C@H](C)c5ccccc5)CC4)c3C2=O)cc1OC` (stereo partly drawn) [Cpd 68, thiophene-2-sulfonic acid (4-(3,4-dimethoxy-phenyl)-4-{1,3-dioxo-4-[4-(1R)-(1-phenyl-ethyl)-piperazin-1-yl]-1,3-dihydro-isoindol-2-yl}-butyl)-amide] yielded a Ki in test [1] (setting [3]) of 0.076 µM. Besides, in test [2], the inhibition at 10 µM was found to be 98% and the inhibition at 50 µM is 99%. In test [2] (read-out: IC50), the IC50 is 0.1 µM and 0.08 µM.

Regarding `COc1ccc(C(CCCCNC(=O)OC(C)(C)C)N2C(=O)c3cccc(N4CCN([C@H](C)c5ccccc5)CC4)c3C2=O)cc1OC` (stereo partly drawn) [Cpd 69, (5-(3,4-dimethoxy-phenyl)-5-{1,3-dioxo-4-[4-(1R)-(1-phenyl-ethyl)-piperazin-1-yl]-1,3-dihydro-isoindol-2-yl}-pentyl)-carbamic acid tert-butyl ester], the Ki in test [1] is above 10 µM. Also, in test [2], the inhibition at 10 µM was found to be 11% and the inhibition at 50 µM worked out at 52%. The IC50 in test [2] (read-out: IC50) was 65 µM.
